“And” between values parts separate entries of the source, which are not always exact repeats. Equal entries are not always repeated.
What was measured:
Test in all cases: Fluorescence polarization assay, FAM-labeled [AG]10 RNA and recombinant eIF4A
Format in all cases: binding
[1] = molecular target: T1, H. sapiens eIF4A1 Phe163Gly (Homo sapiens, UniProt P60842, F163G)
T1 construct: His tag (N); made in house; host or cells: E. coli BL21 Star (DE3)
Experimental: (§1) The fluorescence polarization assay was performed as previously described ([Chen et al., 2021]). […] After incubation at room temperature for 30 min, the mixture was transferred to a black 384-well microplate (Corning), and the fluorescence polarization was measured by an Infinite F-200 PRO (Tecan). Under ADP + Pi conditions, 1 mM ADP (Fujifilm Wako Chemicals) and 1 mM Na2HPO4 were used as substitutes for AMP-PNP. The data were fitted to the Hill equation to calculate Kd values and visualized by Igor Pro v8.01 (WaveMetrics).

[2] = molecular target: T2, H. sapiens eIF4A1 Phe163His (Homo sapiens, UniProt P60842, F163H); conditions: RocA 50 µM
T2 construct: His tag (N); made in house; host or cells: E. coli BL21 Star (DE3)
T2 sequence (P60842 whole entry F163H): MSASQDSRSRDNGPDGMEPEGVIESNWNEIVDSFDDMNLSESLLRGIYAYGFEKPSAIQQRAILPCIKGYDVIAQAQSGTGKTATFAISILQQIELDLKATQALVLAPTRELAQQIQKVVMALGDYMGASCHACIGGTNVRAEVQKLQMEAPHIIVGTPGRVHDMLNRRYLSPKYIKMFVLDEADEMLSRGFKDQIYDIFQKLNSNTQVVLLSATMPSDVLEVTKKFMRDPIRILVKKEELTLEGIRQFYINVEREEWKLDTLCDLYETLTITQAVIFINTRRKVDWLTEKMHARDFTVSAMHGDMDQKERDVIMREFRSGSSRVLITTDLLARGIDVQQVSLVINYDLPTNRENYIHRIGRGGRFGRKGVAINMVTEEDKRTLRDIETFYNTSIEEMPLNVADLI
Experimental: as §1

[3] = molecular target: T3, H. sapiens eIF4A1 WT Phe163 (Homo sapiens, UniProt P60842); conditions: RocA 50 µM
T3 construct: His tag (N); made in house; host or cells: E. coli BL21 Star (DE3)
T3 sequence (P60842 whole entry): as the sequence (P60842 whole entry F163H) above, with H163F counted along it
Experimental: as §1

[4] = [AG]10, ADP + Pi, RocA 50 µM, protein 0.01 μM
[5] = [AG]10, ADP + Pi, RocA 50 µM, protein 0.05 μM
[6] = [AG]10, ADP + Pi, RocA 50 µM, protein 0.075 μM
[7] = [AG]10, ADP + Pi, RocA 50 µM, protein 0.1 μM
[8] = [AG]10, ADP + Pi, RocA 50 µM, protein 0.5 μM
[9] = [AG]10, ADP + Pi, RocA 50 µM, protein 0.75 μM
[10] = [AG]10, ADP + Pi, RocA 50 µM, protein 1 μM
[11] = [AG]10, ADP + Pi, RocA 50 µM, protein 5 μM
[12] = [AG]10, ADP + Pi, RocA 50 µM, protein 7.5 μM
[13] = [AG]10, ADP + Pi, RocA 50 µM, protein 10 μM
[14] = [AG]10, ADP + Pi, RocA 50 µM, protein 25 μM
[15] = [AG]10, ADP + Pi, RocA 50 µM, protein 50 μM
[16] = [AG]10 RNA, AMP-PNP, RocA, protein concentration 0.01 μM
[17] = [AG]10 RNA, AMP-PNP, RocA, protein concentration 0.05 μM
[18] = [AG]10 RNA, AMP-PNP, RocA, protein concentration 0.075 μM
[19] = [AG]10 RNA, AMP-PNP, RocA, protein concentration 0.1 μM
[20] = [AG]10 RNA, AMP-PNP, RocA, protein concentration 0.5 μM
[21] = [AG]10 RNA, AMP-PNP, RocA, protein concentration 0.75 μM
[22] = [AG]10 RNA, AMP-PNP, RocA, protein concentration 1 μM
[23] = [AG]10 RNA, AMP-PNP, RocA, protein concentration 5 μM
[24] = [AG]10 RNA, AMP-PNP, RocA, protein concentration 7.5 μM
[25] = [AG]10 RNA, AMP-PNP, RocA, protein concentration 10 μM
[26] = [AG]10 RNA, AMP-PNP, RocA, protein concentration 25 μM
[27] = [AG]10 RNA, AMP-PNP, RocA, protein concentration 50 μM

T1 sequence (P60842 whole entry F163G): as the sequence (P60842 whole entry F163H) above, with H163G counted along it

SMILES: COc1ccc([C@@]23Oc4cc(OC)cc(OC)c4[C@]2(O)[C@H](O)[C@H](C(=O)N(C)C)[C@H]3c2ccccc2)cc1 [RocA, rocaglamide A]
- fluorescence polarization, Mean [1, 4]: 0.04918
- fluorescence polarization, replicates [1, 4]: 0.1421 and 0.05191 and -0.04645
- fluorescence polarization, Mean [1, 5]: 0.02732
- fluorescence polarization, replicates [1, 5]: 0.2322 and -0.03005 and -0.1202
- fluorescence polarization, Mean [1, 6]: -0.02459
- fluorescence polarization, replicates [1, 6]: 0.06011 and -0.02186 and -0.112
- fluorescence polarization, Mean [1, 7]: -0.01913
- fluorescence polarization, replicates [1, 7]: -0.03005 and -0.01366 (2×)
- fluorescence polarization, Mean [1, 8]: -0.02459
- fluorescence polarization, replicates [1, 8]: 0.0765 and 0.04372 and -0.194
- fluorescence polarization, Mean [1, 9]: -0.02459
- fluorescence polarization, replicates [1, 9]: 0.1831 and -0.05465 and -0.2022
- fluorescence polarization, Mean [1, 10]: -0.01913
- fluorescence polarization, replicates [1, 10]: 0.1093 and -0.06284 and -0.1038
- fluorescence polarization, Mean [1, 11]: 0.224
- fluorescence polarization, replicates [1, 11]: 0.3634 and 0.224 and 0.0847
- fluorescence polarization, Mean [1, 12]: 0.1721
- fluorescence polarization, replicates [1, 12]: 0.3798 and 0.03552 and 0.1011
- fluorescence polarization, Mean [1, 13]: 0.276
- fluorescence polarization, replicates [1, 13]: 0.3962 and 0.1585 and 0.2732
- fluorescence polarization, Mean [1, 14]: 0.5137
- fluorescence polarization, replicates [1, 14]: 0.7404 and 0.5273 and 0.2732
- fluorescence polarization, Mean [1, 15]: 0.582
- fluorescence polarization, replicates [1, 15]: 0.7568 and 0.5437 and 0.4454
- Fluorescence polarization, Replicate 1-3 [1, 16]: 0.04918 and -0.08197 and -0.1475
- fluorescence polarization, Mean [1, 16]: -0.06011
- Fluorescence polarization, Replicate 1-3 [1, 17]: 0.1311 and -0.09016 and -0.09836
- fluorescence polarization, Mean [1, 17]: -0.01913
- Fluorescence polarization, Replicate 1-3 [1, 18]: -0.04098 and -0.1393 and -0.09836
- fluorescence polarization, Mean [1, 18]: -0.0929
- Fluorescence polarization, Replicate 1-3 [1, 19]: 0.07377 and 0.02459 and -0.06557
- fluorescence polarization, Mean [1, 19]: 0.01093
- Fluorescence polarization, Replicate 1-3 [1, 20]: 0.5984 and 0.4918 and 0.4016
- fluorescence polarization, Mean [1, 20]: 0.4973
- Fluorescence polarization, Replicate 1-3 [1, 21]: 0.4508 and 0.2049 and 0.1148
- fluorescence polarization, Mean [1, 21]: 0.2568
- Fluorescence polarization, Replicate 1-3 [1, 22]: 0.5082 and 0.3689 (2×)
- fluorescence polarization, Mean [1, 22]: 0.4153
- Fluorescence polarization, Replicate 1-3 [1, 23]: 0.7131 and 0.7705 and 0.7541
- fluorescence polarization, Mean [1, 23]: 0.7459
- Fluorescence polarization, Replicate 1-3 [1, 24]: 0.6393 and 0.6721 and 0.5902
- fluorescence polarization, Mean [1, 24]: 0.6339
- Fluorescence polarization, Replicate 1-3 [1, 25]: 0.7951 and 0.7459 and 0.7705
- fluorescence polarization, Mean [1, 25]: 0.7705
- Fluorescence polarization, Replicate 1-3 [1, 26]: 0.7623 and 0.7213 and 0.6639
- fluorescence polarization, Mean [1, 26]: 0.7158
- Fluorescence polarization, Replicate 1-3 [1, 27]: 0.9016 and 0.7623 and 0.7787
- fluorescence polarization, Mean [1, 27]: 0.8142
- fluorescence polarization, Mean ([2]; ADP + Pi, protein 0.01 μM): -0.03005
- fluorescence polarization, replicates ([2]; ADP + Pi, protein 0.01 μM): 0.07104 and -0.06011 and -0.1011
- fluorescence polarization, Mean ([2]; ADP + Pi, protein 0.05 μM): -0.008197
- fluorescence polarization, replicates ([2]; ADP + Pi, protein 0.05 μM): 0.03005 and 0.005464 and -0.06011
- fluorescence polarization, Mean ([2]; ADP + Pi, protein 0.075 μM): 0.02186
- fluorescence polarization, replicates ([2]; ADP + Pi, protein 0.075 μM): 0.03005 and 0.01366 and 0.02186
- fluorescence polarization, Mean ([2]; ADP + Pi, protein 0.1 μM): 0.01639
- fluorescence polarization, replicates ([2]; ADP + Pi, protein 0.1 μM): 0.04645 and -0.01913 and 0.02186
- fluorescence polarization, Mean ([2]; ADP + Pi, protein 0.5 μM): 0.08197
- fluorescence polarization, replicates ([2]; ADP + Pi, protein 0.5 μM): 0.04645 and 0.1038 and 0.09563
- fluorescence polarization, Mean ([2]; ADP + Pi, protein 0.75 μM): 0.06831
- fluorescence polarization, replicates ([2]; ADP + Pi, protein 0.75 μM): 0.1448 and -0.01913 and 0.07923
- fluorescence polarization, Mean ([2]; ADP + Pi, protein 1 μM): 0.1694
- fluorescence polarization, replicates ([2]; ADP + Pi, protein 1 μM): 0.2514 and 0.1694 and 0.08743
- fluorescence polarization, Mean ([2]; ADP + Pi, protein 5 μM): 0.3306
- fluorescence polarization, replicates ([2]; ADP + Pi, protein 5 μM): 0.3415 and 0.3661 and 0.2842
- fluorescence polarization, Mean ([2]; ADP + Pi, protein 7.5 μM): 0.4153
- fluorescence polarization, replicates ([2]; ADP + Pi, protein 7.5 μM): 0.3579 and 0.4973 and 0.3907
- fluorescence polarization, Mean ([2]; ADP + Pi, protein 10 μM): 0.5765
- fluorescence polarization, replicates ([2]; ADP + Pi, protein 10 μM): 0.694 and 0.5301 and 0.5055
- fluorescence polarization, Mean ([2]; ADP + Pi, protein 25 μM): 0.6311
- fluorescence polarization, replicates ([2]; ADP + Pi, protein 25 μM): 0.6366 and 0.7022 and 0.5546
- fluorescence polarization, Mean ([2]; ADP + Pi, protein 50 μM): 0.8251
- fluorescence polarization, replicates ([2]; ADP + Pi, protein 50 μM): 0.7268 and 0.8579 and 0.8907
- fluorescence polarization, Mean ([2]; AMP-PNP, protein 0.01 μM): -0.005464
- fluorescence polarization, Mean ([2]; AMP-PNP, protein 0.05 μM): 0.0847
- fluorescence polarization, Mean ([2]; AMP-PNP, protein 0.075 μM): 0.1721
- fluorescence polarization, Mean ([2]; AMP-PNP, protein 0.1 μM): 0.3169
- fluorescence polarization, replicates ([2]; AMP-PNP, protein 0.1 μM): 0.2705 and 0.3525 and 0.3279
- fluorescence polarization, Mean ([2]; AMP-PNP, protein 0.5 μM): 0.7951
- fluorescence polarization, replicates ([2]; AMP-PNP, protein 0.5 μM): 0.7705 and 0.7869 and 0.8279
- fluorescence polarization, Mean ([2]; AMP-PNP, protein 0.75 μM): 0.8306
- fluorescence polarization, replicates ([2]; AMP-PNP, protein 0.75 μM): 0.8361
- fluorescence polarization, Mean ([2]; AMP-PNP, protein 1 μM): 0.9317
- fluorescence polarization, Mean ([2]; AMP-PNP, protein 5 μM): 0.9536
- fluorescence polarization, Mean ([2]; AMP-PNP, protein 7.5 μM): 0.8907
- fluorescence polarization, Mean ([2]; AMP-PNP, protein 10 μM): 0.9481
- fluorescence polarization, Mean ([2]; AMP-PNP, protein 25 μM): 0.9481
- fluorescence polarization, Mean ([2]; AMP-PNP, protein 50 μM): 1
- fluorescence polarization, Mean ([3]; ADP + Pi, protein 0.01 μM): 0.08197
- fluorescence polarization, Mean ([3]; ADP + Pi, protein 0.05 μM): 0.09836
- fluorescence polarization, Mean ([3]; ADP + Pi, protein 0.075 μM): 0.06831
- fluorescence polarization, Mean ([3]; ADP + Pi, protein 0.1 μM): 0.1776
- fluorescence polarization, Mean ([3]; ADP + Pi, protein 0.5 μM): 0.5956
- fluorescence polarization, Mean ([3]; ADP + Pi, protein 0.75 μM): 0.735
- fluorescence polarization, Mean ([3]; ADP + Pi, protein 1 μM): 0.6831
- fluorescence polarization, Mean ([3]; ADP + Pi, protein 5 μM): 0.9481
- fluorescence polarization, Mean ([3]; ADP + Pi, protein 7.5 μM): 0.8825
- fluorescence polarization, Mean ([3]; ADP + Pi, protein 10 μM): 0.9699
- fluorescence polarization, Mean ([3]; ADP + Pi, protein 25 μM): 1.044
- fluorescence polarization, Mean ([3]; ADP + Pi, protein 50 μM): 1.0929
- fluorescence polarization, Mean ([3]; AMP-PNP, protein 0.01 μM): 0.2213
- fluorescence polarization, Mean ([3]; AMP-PNP, protein 0.05 μM): 0.7268
- fluorescence polarization, Mean ([3]; AMP-PNP, protein 0.075 μM): 0.4973
- fluorescence polarization, Mean ([3]; AMP-PNP, protein 0.1 μM): 0.765
- fluorescence polarization, Mean ([3]; AMP-PNP, protein 0.5 μM): 1.016
- fluorescence polarization, Mean ([3]; AMP-PNP, protein 0.75 μM): 1.0082
- fluorescence polarization, Mean ([3]; AMP-PNP, protein 1 μM): 1.049
- fluorescence polarization, Mean ([3]; AMP-PNP, protein 5 μM): 1.046
- fluorescence polarization, Mean ([3]; AMP-PNP, protein 7.5 μM): 1.123
- fluorescence polarization, Mean ([3]; AMP-PNP, protein 10 μM): 1.156
- fluorescence polarization, Mean ([3]; AMP-PNP, protein 25 μM): 1.142
- fluorescence polarization, Mean ([3]; AMP-PNP, protein 50 μM): 1.15

Reference: PMC9977294, “A parasitic fungus employs mutated eIF4A to survive on rocaglate-synthesizing Aglaia plants” (eLife, 2023)
